Reference: ChEMBL document CHEMBL4725478, “Spiroindoline-Capped Selective HDAC6 Inhibitors: Design, Synthesis, Structural Analysis, and Biological Evaluation” (ACS Med Chem Lett, 2020)
Active and inactive are the calls of the source. No cut-off for these calls is given here.

Legend:
[1] = Mutagenicity in Salmonella typhimurium TA98 at 8 to 160 uM measured after 90 mins in absence of S9 fraction by Ames test; format: toxicity; conditions: salmonella enterica subsp. enterica serovar typhimurium, s9, 1.5 h, dose 8-160 µM
[2] = tested on: NB-4; assay: Induction of apoptosis in human NB-4 cells assessed as increase in cleaved PARP expression at 10 uM measured after 24 to 48 hrs by Western blot analysis; format: functional, cell-based; conditions: time hrs 24-48
[3] = Antiproliferative activity against human TR-146 cells assessed as reduction in cell viability measured after 48 hrs by alamar blue dye based spectrofluorometry; format: functional; conditions: TR146, 48 h
[4] = tested on: NB-4; assay: Cell cycle arrest in human NB-4 cells at 5 to 10 uM measured after 24 to 48 hrs by propidium iodide staining based flow cytometry; format: functional; conditions: dose microM 5-10, time hrs 24-48
[5] = Mutagenicity in Salmonella typhimurium TA98 at 8 to 160 uM measured after 90 mins in presence of S9 fraction by Ames test; format: toxicity, subcellular; conditions: salmonella enterica subsp. enterica serovar typhimurium, s9, 1.5 h, dose 8-160 µM
[6] = tested on: KYSE-520 cell line; assay: Induction of apoptosis human KYSE520 cells at 30 to 100 uM measured after 48 hrs by Annexin-V/propidium iodide staining based assay; format: functional, cell-based; conditions: dose microM 30-100, time 48.0 hrs
[7] = target: T1, Histone deacetylase 1 (Homo sapiens, UniProt Q13547); assay: Inhibition of full length C-terminal His/FLAG-tagged human HDAC1 expressed in baculovirus expression system using ZMAL as substrate incubated for 90 mins by fluorescence assay
[8] = tested on: U-937; assay: Cell cycle arrest in human U-937 cells assessed as reduction in accumulation at S-phase at 10 uM measured after 24 to 48 hrs by propidium iodide staining based flow cytometry; format: functional; conditions: time hrs 24-48
[9] = tested on: Ca9-22; assay: Antiproliferative activity against human Ca9-22 cells assessed as reduction in cell viability measured after 48 hrs by alamar blue dye based spectrofluorometry; format: functional; conditions: Ca9-22, 48 h
[10] = target: T2, Protein deacetylase HDAC6 (Homo sapiens, UniProt Q9UBN7); assay: Inhibition of full length N-terminal GST-tagged human HDAC6 expressed in baculovirus expression system using ZMAL as substrate incubated for 90 mins by fluorescence assay
T2 sequence (Q9UBN7 whole entry): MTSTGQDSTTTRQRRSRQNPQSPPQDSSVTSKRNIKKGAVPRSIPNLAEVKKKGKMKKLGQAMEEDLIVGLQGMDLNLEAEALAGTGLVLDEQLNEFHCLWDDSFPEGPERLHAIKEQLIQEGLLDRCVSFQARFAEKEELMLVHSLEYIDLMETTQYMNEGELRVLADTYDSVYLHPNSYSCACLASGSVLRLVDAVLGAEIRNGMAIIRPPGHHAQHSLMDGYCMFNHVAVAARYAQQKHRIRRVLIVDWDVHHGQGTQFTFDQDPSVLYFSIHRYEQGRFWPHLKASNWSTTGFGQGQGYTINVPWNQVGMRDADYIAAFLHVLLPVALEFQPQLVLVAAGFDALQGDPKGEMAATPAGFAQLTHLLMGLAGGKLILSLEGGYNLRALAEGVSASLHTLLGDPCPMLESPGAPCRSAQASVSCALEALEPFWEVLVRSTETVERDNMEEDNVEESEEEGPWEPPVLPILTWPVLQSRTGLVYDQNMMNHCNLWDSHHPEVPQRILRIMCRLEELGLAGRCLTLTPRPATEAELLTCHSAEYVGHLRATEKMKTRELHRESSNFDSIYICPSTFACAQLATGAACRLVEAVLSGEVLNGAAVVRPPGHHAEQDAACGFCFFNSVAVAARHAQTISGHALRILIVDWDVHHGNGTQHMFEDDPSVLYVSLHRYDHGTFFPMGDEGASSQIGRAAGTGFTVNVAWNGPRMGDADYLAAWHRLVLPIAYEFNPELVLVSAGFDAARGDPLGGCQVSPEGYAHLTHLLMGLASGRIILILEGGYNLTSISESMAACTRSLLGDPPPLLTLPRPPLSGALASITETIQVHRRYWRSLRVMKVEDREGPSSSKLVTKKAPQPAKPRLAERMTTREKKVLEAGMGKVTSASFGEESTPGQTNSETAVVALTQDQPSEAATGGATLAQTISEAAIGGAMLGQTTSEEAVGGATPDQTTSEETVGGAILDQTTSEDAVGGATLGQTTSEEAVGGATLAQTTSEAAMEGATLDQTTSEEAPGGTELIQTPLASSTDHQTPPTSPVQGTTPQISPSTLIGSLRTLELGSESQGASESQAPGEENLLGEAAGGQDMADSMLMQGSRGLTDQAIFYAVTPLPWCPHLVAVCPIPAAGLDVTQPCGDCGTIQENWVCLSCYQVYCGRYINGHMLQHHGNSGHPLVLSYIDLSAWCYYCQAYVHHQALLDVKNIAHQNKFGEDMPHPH

[11] = organism: Homo sapiens; assay: Selectivity ratio of IC50 for full length C-terminal His/FLAG-tagged human HDAC1 expressed in baculovirus expression system to IC50 full length N-terminal GST-tagged human HDAC6 expressed in baculovirus expression system
[12] = tested on: OE33; assay: Antiproliferative activity against human OE33 cells assessed as reduction in cell viability measured after 72 hrs by MTT assay; format: functional, cell-based; conditions: OE33, 72 h
[13] = Mutagenicity in Salmonella typhimurium TA100 at 8 uM measured after 90 mins in absence of S9 fraction by Ames test; format: toxicity; conditions: salmonella enterica subsp. enterica serovar typhimurium, s9, 1.5 h
[14] = tested on: KYSE-520 cell line; assay: Antiproliferative activity against human KYSE520 cells assessed as reduction in cell viability measured after 48 hrs by alamar blue dye based spectrofluorometry; format: functional; conditions: KYSE-520, 48 h
[15] = Mutagenicity in Salmonella typhimurium TA100 at 8 uM measured after 90 mins in presence of S9 fraction by Ames test; format: toxicity, subcellular; conditions: salmonella enterica subsp. enterica serovar typhimurium, s9, 1.5 h
[16] = Cytotoxicity against mouse NIH3T3 cells assessed as reduction in cell viability measured after 24 hrs by neutral red uptake assay; format: cell-based; conditions: read-out: TC50
[17] = organism: Homo sapiens; assay: Selectivity ratio of IC50 for human recombinant HDAC8 expressed in Escherichia coli to IC50 full length N-terminal GST-tagged HDAC6 expressed in baculovirus expression system
[18] = target: T3, Protein deacetylase HDAC6 (Homo sapiens) (UniProt Q9UBN7); assay: Inhibition of HDAC6 in human MEC1 cells assessed as reduction in STAT3 phosphorylation at 5 to 10 uM measured after 30 hrs by immunoblot assay; format: cell-based; conditions: dose microM 5-10, time 30.0 hrs
T3 sequence (whole entry): T2 sequence (Q9UBN7 whole entry)

[19] = Mutagenicity in Salmonella typhimurium TA100 at 24 to 40 uM measured after 90 mins in absence of S9 fraction by Ames test; format: toxicity; conditions: salmonella enterica subsp. enterica serovar typhimurium, s9, 1.5 h, dose 24-40 µM
[20] = target: T4, Histone deacetylase 8 (Homo sapiens, UniProt Q9BY41); assay: Inhibition of human recombinant HDAC8 expressed in Escherichia coli using Fluor de Lys substrate preincubated for 15 mins followed by substrate addition and measured after 60 mins by fluorescence assay
T4 sequence (Q9BY41 whole entry): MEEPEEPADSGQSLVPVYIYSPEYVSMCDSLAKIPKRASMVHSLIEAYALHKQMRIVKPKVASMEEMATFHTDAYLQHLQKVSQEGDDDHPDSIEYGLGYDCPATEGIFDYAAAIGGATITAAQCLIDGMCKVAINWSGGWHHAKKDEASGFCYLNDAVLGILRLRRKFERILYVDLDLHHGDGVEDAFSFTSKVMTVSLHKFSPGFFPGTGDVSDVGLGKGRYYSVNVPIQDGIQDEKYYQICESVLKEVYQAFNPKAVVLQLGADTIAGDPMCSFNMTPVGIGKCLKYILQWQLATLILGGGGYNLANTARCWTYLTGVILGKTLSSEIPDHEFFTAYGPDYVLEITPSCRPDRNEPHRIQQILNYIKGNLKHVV

[21] = target: T3, Protein deacetylase HDAC6 (Homo sapiens); assay: Inhibition of HDAC6 in human U-266 cells assessed as reduction in STAT3 phosphorylation at 25 uM measured after 4 to 48 hrs by immunoblot assay; format: cell-based; conditions: time hrs 4-48
[22] = Mutagenicity in Salmonella typhimurium TA100 at 24 to 40 uM measured after 90 mins in presence of S9 fraction by Ames test; format: toxicity, subcellular; conditions: salmonella enterica subsp. enterica serovar typhimurium, s9, 1.5 h, dose 24-40 µM
[23] = target: T1, Histone deacetylase 1; assay: Inhibition of full length C-terminal His/FLAG-tagged human HDAC1 expressed in baculovirus expression system at 1 uM using ZMAL as substrate incubated for 90 mins by fluorescence assay relative to control
[24] = target: T3, Protein deacetylase HDAC6 (Homo sapiens); assay: Inhibition of full length N-terminal GST-tagged human HDAC6 expressed in baculovirus expression system at 1 uM using ZMAL as substrate incubated for 90 mins by fluorescence assay relative to control

T1 sequence (Q13547 whole entry): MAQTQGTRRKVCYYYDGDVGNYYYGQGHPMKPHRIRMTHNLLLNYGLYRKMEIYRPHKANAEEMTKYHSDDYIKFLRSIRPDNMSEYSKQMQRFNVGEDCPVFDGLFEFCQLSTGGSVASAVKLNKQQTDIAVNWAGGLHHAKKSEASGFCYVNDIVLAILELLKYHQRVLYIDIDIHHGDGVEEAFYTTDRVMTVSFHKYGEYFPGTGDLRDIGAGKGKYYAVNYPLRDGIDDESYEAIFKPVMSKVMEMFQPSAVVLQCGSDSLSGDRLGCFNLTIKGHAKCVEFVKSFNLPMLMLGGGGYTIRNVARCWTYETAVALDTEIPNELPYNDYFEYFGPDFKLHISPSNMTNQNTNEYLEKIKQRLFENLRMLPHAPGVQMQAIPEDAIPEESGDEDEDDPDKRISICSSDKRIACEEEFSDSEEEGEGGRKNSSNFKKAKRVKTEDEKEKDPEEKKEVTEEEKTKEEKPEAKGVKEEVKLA

SMILES	IC50 [7] [µM]	IC50 [10] [µM]	Ratio IC50 [11]	Activity [1]	IC50 [3] [µM]	Activity [5]	IC50 [9] [µM]	IC50 [12] [µM]	IC50 [14] [µM]	CC50 at 24 h [16] [µM]	further results
O=C(NO)c1ccc(CN2CCC3(CC2)CN(Cc2ccccc2)c2ccccc23)cc1	6.5	0.561	12	Non-Toxic	18	Non-Toxic	19	5.56	12.8	40	Activity [2]: Active; Activity [4]: Active; Activity [6]: Active; Activity [8]: Active; Activity [13]: Toxic; Activity [15]: Toxic
CN1CC2(CCN(Cc3ccc(C(=O)NO)cc3)CC2)c2ccccc21	22.4	0.264	85	Non-Toxic	> 1000	Non-Toxic	> 1000	17.7	197	24	Ratio IC50 [17]: 7; inhibition [18]: Active; Activity [19]: Toxic; IC50 [20]: 1.91 µM; inhibition [21]: Active; Activity [22]: Toxic
CN1CC2(CCN(Cc3ccc(C(=O)NO)cc3)CC2)c2cccc(-c3ccccc3)c21	–	–	–	–	–	–	–	–	–	–	inhibition [23]: 8.5%; inhibition [24]: 50%

Now from value to compound, other results behind:

IC50 [7] [µM]	IC50 [10] [µM]	Ratio IC50 [11]	SMILES	Activity [1]	IC50 [3] [µM]	Activity [5]	IC50 [9] [µM]	IC50 [12] [µM]	IC50 [14] [µM]	CC50 at 24 h [16] [µM]	further results
–	–	95	CC(C)(C)OC(=O)N1CCC2(CC1)CN(Cc1ccc(C(=O)NO)cc1)c1ccccc12	–	–	–	–	–	–	–	–
10.1	0.155	65	O=C(NO)c1ccc(CN2CCC3(CC2)CN(C(=O)c2ccccc2)c2ccccc23)cc1	–	> 1000	–	> 1000	–	–	–	–
